# Data from patent US7605154B2, “Substituted Thiazolo [4,5-d]pyrimidines as protein kinase inhibitors” (Janssen Pharmaceutica N.V., priority 2005, dated 2009).
# Biological target: T1, EGFR (Homo sapiens, UniProt P00533)
# T1 construct: started at nucleotide 2189 (corresponding to amino acid 667) and ended at the termination codon; made in house; host or cells: Sf9 insect cells (baculovirus)
# Experiment: EGFR Kinase Assay
# Assay type: biochemical
# Settings: GST-EGFR, 5 μM ATP
# Description: The portion was PCR amplified with primers that added the lambda attB sequences to each end, recombined into an entry vector, then into a, GST destination vector (as described in Gateway Technologies Manual by Invitrogen Corporation, Carlsbad, Calif.).
# The destination vector was recombined in the DH10BAC strain of bacteria to produce a bacmid. The bacmid was transfected into Sf 9 cells and the supernatant containing the baculovirus was collected. The GSTEGFR protein was purified using large cultures of Sf 9 cells infected with stock virus. After an appropriate period of time, the cells were collected and lysed. The GSTEGFR was then purified from the lysate on Glutathione-Sepharose columns (as described by Amersham Biosciences, Buckinghamshire, United Kingdom).
# The free biotin was separated from the biotinylated polyGluTyr on a gel filtration column.
# A mixture of a 10× kinase buffer (500 mM Tris at pH 8.0, 100 mM Magnesium Chloride and 1 mM Sodium Vanadate), DTT (1 mM final from 500 mM stock), ATP (5 μM final from 10 mM stock), biotinylated polyGluTyr (10 μg/μL stock), γ-^33P ATP (10 μCi/μL stock) and water was added to each well (90 μL/well) of a Streptavidin Flashplate (Perkin Elmer, Wellesley, Mass.).
# Test compound in 100% DMSO (2 μL) was added to the appropriate wells. Diluted GSTEGFR (1:300 dilution in 50 mM Tris at pH 8.0 and 0.1% bovine serum albumin) (10 μL) was added to the wells to initiate the reactions.
# The plates were incubated at 30° C. for 1 hr with shaking. The reacted contents were removed and the plates were sequentially washed three times with a 1×PBS stop buffer (300 μL without Magnesium and Calcium) and 100 mM EDTA. After the final wash, the same stop buffer (200 μL) was added to the wells. The plates were then sealed and read on the TopCount scintillation counter.
# Test compounds were assayed in triplicate at 16 concentrations at half-log dilutions starting at 200 uM. A maximum and minimum signal for the assay was determined on each plate. The percent inhibition of a test compound was calculated according to the formula
# For a series of test concentrations, the IC50 was derived by graphing percent inhibition against the log of the concentrations tested for a given compound.
# T1 sequence (P00533 667-1210 limits assumed): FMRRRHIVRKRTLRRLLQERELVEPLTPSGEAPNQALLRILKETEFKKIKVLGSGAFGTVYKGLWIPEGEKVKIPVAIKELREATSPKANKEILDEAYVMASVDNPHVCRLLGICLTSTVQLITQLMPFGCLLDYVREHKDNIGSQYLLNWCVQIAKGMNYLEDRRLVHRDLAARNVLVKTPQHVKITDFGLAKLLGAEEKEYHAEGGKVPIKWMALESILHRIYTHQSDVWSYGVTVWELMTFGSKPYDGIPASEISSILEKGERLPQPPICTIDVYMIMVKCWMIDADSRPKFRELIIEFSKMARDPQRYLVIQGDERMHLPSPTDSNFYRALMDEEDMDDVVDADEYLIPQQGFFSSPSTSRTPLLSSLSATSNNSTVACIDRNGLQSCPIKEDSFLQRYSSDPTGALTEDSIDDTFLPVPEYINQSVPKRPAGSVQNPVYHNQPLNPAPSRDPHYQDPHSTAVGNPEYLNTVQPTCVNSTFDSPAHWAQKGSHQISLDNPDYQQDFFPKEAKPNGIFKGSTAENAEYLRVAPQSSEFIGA
row,Compound,IC50 [nM]
1,"Fc1ccc(Nc2ncnc3nc(Nc4ccc(OCCCN5CCN(c6ccc(Cl)cc6)CC5)cc4)sc23)cc1Cl [Cpd 16, N^7-(3-chloro-4-fluoro-phenyl)-N^2-(4-{3-[4-(4-chloro-phenyl)-piperazin-1-yl]-propoxy}-phenyl)-thiazolo[4,5-d]pyrimidine-2,7-diamine]",165
2,"Oc1ccc(Nc2nc3ncnc(Nc4ccc(F)c(Cl)c4)c3s2)cc1 [Cpd 13, 4-[7-(3-chloro4-fluoro-phenylamino)-thiazolo[4,5-d]pyrimidin-2-ylamino]-phenol]",95
3,"C#Cc1cccc(Nc2ncnc3nc(Nc4ccc(CN5CCCC5)cc4)sc23)c1 [Cpd 42, N^7-(3-ethynyl-phenyl)-N^2-(4-pyrrolidin-1-ylmethyl-phenyl)-thiazolo[4,5-d]pyrimidine-2,7-diamine]",5.42
4,"C#Cc1cccc(Nc2ncnc3nc(Nc4ccc(CN(CCOC)CCOC)cc4)sc23)c1 [Cpd 38, N^2-(4-{[bis-(2-methoxy-ethyl)-amino]-methyl}-phenyl)-N^7-(3-ethynyl-phenyl)-thiazolo[4,5-d]pyrimidine-2,7-diamine]",28.5
5,"C#Cc1cccc(Nc2ncnc3nc(Nc4ccc(S(=O)(=O)N5CCOCC5)cc4)sc23)c1 [Cpd 45, N^7-(3-ethynyl-phenyl)-N^2-[4-(morpholine-4-sulfonyl)-phenyl]-thiazolo[4,5-d]pyrimidine-2,7-diamine]",22.5
6,"CN(C)Cc1ccc(Nc2nc3ncnc(Nc4ccc(F)c(Cl)c4)c3s2)cc1 [Cpd 10, N^7-(3-chloro-4-fluoro-phenyl)-N^2-(4-dimethylaminomethyl-phenyl)-thiazolo[4,5-d]pyrimidine-2,7-diamine]",12.3
7,"C#Cc1cccc(Nc2ncnc3nc(Nc4ccc(CN5CCCCC5)cc4)sc23)c1 [Cpd 43, N^7-(3-ethynyl-phenyl)-N^2-(4-piperidin-1-ylmethyl-phenyl)-thiazolo[4,5-d]pyrimidine-2,7-diamine]",7.8
8,"O=S(=O)(NCCN1CCOCC1)c1ccc(Nc2nc3ncnc(Nc4ccc(F)c(Cl)c4)c3s2)cc1 [Cpd 40, 4-[7-(3-chloro-4-fluoro-phenylamino)-thiazolo[4,5-d]pyrimidin-2-ylamino]-N-(2-morpholin-4-yl-ethyl)-benzenesulfonamide]",9
9,"CN1CCN(Cc2ccc(Nc3nc4ncnc(Nc5ccc(F)c(Cl)c5)c4s3)cc2)CC1 [Cpd 5, N^7-(3-chloro-4-fluoro-phenyl)-N^2-[4-(4-methyl-piperazin-1-ylmethyl)-phenyl]-thiazolo[4,5-d]pyrimidine-2,7-diamine]",18.4
10,"CC1CC(C)CN(Cc2ccc(Nc3nc4ncnc(Nc5ccc(F)c(Cl)c5)c4s3)cc2)C1 (stereo not shown) [Cpd 24, N^7-(3-chloro-4-fluoro-phenyl)-N^2-[4-(3,5-dimethyl-piperidin-1-ylmethyl)-phenyl]-thiazolo[4,5-d]pyrimidine-2,7-diamine]",21.6
11,"Fc1ccc(Nc2ncnc3nc(Nc4ccc(Cn5ccnc5)cc4)sc23)cc1Cl [Cpd 23, N^7-(3-chloro-4-fluoro-phenyl)-N^2-(4-imidazol-1-ylmethyl-phenyl)-thiazolo[4,5-d]pyrimidine-2,7-diamine]",6.3
12,"COc1cc(Nc2nc3ncnc(Nc4ccc(F)c(Cl)c4)c3s2)ccc1CN1CCCCC1 [Cpd 6, N^7-(3-chloro-4-fluoro-phenyl)-N^2-(3-methoxy4-piperidin-1-ylmethyl-phenyl)-thiazolo[4,5-d]pyrimidine-2,7-diamine]",20
13,"C#Cc1cccc(Nc2ncnc3nc(Nc4ccc(S(=O)(=O)NCCCN(C)C)cc4)sc23)c1 [Cpd 37, N-(3-dimethylamino-propyl)-4-[7-(3-ethynyl-phenylamino)-thiazolo[4,5-d]pyrimidin-2-ylamino]-benzenesulfonamide]",25.3
14,"Fc1ccc(Nc2ncnc3nc(Nc4ccc(OCCN5CCOCC5)cc4)sc23)cc1Cl [Cpd 14, N^7-(3-chloro-4-fluoro-phenyl)-N^2-[4-(2-morpholin-4-yl-ethoxy)-phenyl]-thiazolo[4,5-d]pyrimidine-2,7-diamine]",59.4
15,"c1ccc(Cn2ncc3ccc(Nc4ncnc5nc(Nc6ccc(CN7CCOCC7)cc6)sc45)cc32)cc1 [Cpd 36, N^7-(1-benzyl-1H-indazol-6-yl)-N^2-(4-morpholin-4-ylmethyl-phenyl)-thiazolo[4,5-d]pyrimidine-2,7-diamine]",1020

# Other lines, results leading:
row,IC50 [nM],Compound
1,10.7,C#Cc1cccc(Nc2ncnc3nc(Nc4ccc(CN(C)C5CCOCC5)cc4)sc23)c1 [Cpd 63]
2,5,"NS(=O)(=O)c1ccc(Nc2nc3ncnc(Nc4ccc(Br)c(Cl)c4)c3s2)cc1 [Cpd 82, 4-[7-(4-bromo-3-chloro-phenylamino)-thiazolo[4,5-d]pyrimidin-2-ylamino]-benzenesulfonamide]"
3,16.5,"Brc1cccc(Nc2ncnc3nc(Nc4ccccc4)sc23)c1 [Cpd 90, N^7-(3-bromo-phenyl)-N^2-phenyl-thiazolo[4,5-d]pyrimidine-2,7-diamine]"
4,9,"C#Cc1cccc(Nc2ncnc3nc(Nc4ccc(Cn5ccnc5CC)cc4)sc23)c1 [Cpd 48, N^2-[4-(2-ethyl-imidazol-1-ylmethyl)-phenyl]-N^7-(3-ethynyl-phenyl)-thiazolo[4,5-d]pyrimidine-2,7-diamine]"
5,14.3,"Cc1cccc(Nc2ncnc3nc(Nc4ccc(S(N)(=O)=O)cc4)sc23)c1 [Cpd 79, 4-[7-(3-methyl-phenylamino)-thiazolo[4,5-d]pyrimidin-2-ylamino]-benzenesulfonamide]"
6,11.8,"C#Cc1cccc(Nc2ncnc3nc(Nc4ccc(CN(C)C)cc4)sc23)c1 [Cpd 49, N^2-(4-dimethylaminomethyl-phenyl)-N^7-(3-ethynyl-phenyl)-thiazolo[4,5-d]pyriridine-2,7-diamine]"
7,40.2,"NS(=O)(=O)c1ccc(Nc2nc3ncnc(Nc4ccc(Cl)cc4F)c3s2)cc1 [Cpd 76, 4-[7-(4-chloro-2-fluoro-phenylamino)-thiazolo[4,5-d]pyrimidin-2-ylamino]-benzenesulfonamide]"
8,698,"Fc1ccc(Nc2ncnc3nc(NCCCN4CCOCC4)sc23)cc1Cl [Cpd 52, N^7-(3-chloro-4-fluoro-phenyl)-N^2-(3-morpholin-4-yl-propyl)-thiazolo[4,5-d]pyrimidine-2,7-diamine]"
9,28.2,"C#Cc1cccc(Nc2ncnc3nc(Nc4ccc(NCCCN5CCOCC5)nc4)sc23)c1 [Cpd 72, N^7-(3-ethynyl-phenyl)-N^2-[6-(3-morpholin-4-yl-propylamino)-pyridin-3-yl]-thiazolo[4,5-d]pyrimidine-2,7-diamine]"
10,44,"Nc1ccc(Nc2nc3ncnc(Nc4ccc(F)c(Cl)c4)c3s2)cn1 [Cpd 71, N^2-(6-amino-pyridin-3-yl)-N^7-(3-chloro-4-fluoro-phenyl)-thiazolo[4,5-d]pyrimidine-2,7-diamine]"
11,116,"NS(=O)(=O)c1ccc(Nc2nc3ncnc(Nc4cc(Cl)cc(Cl)c4)c3s2)cc1 [Cpd 81, 4-[7-(3,5-dichloro-phenylamino)-thiazolo[4,5-d]pyrimidin-2-ylamino]-benzenesulfonamide]"
12,59.3,"Fc1ccc(Nc2ncnc3nc(Nc4ccccc4)sc23)cc1Cl [Cpd 88, N^7-(3-chloro-4-fluoro-phenyl)-N^2-phenyl-thiazolo[4,5-d]pyrimidine-2,7-diamine]"

# Same assay, conditions: test concentration of 2 μM; compounds without an IC50; read-out: EGFR percent inhibition
row,inhibition at 2 µM [%],Compound
1,13,"COc1ccc(Nc2ncnc3nc(Nc4ccc(S(N)(=O)=O)cc4)sc23)cc1CN1CCOCC1 [Cpd 87, 4-[7-(4-methoxy-3-(morpholin-4-yl)methyl-phenylamino)-thiazolo[4,5-d]pyrimidin-2-ylamino]-benzenesulfonamide]"
